From publication PMC7702301 (Biochemical Journal, 2020)
Each block holds one compound with its values, some of them ahead of it.

Experiments:
MerTK [1] = settings: cited from earlier work
MerTK [2] = biological target: T1, MerTK (Homo sapiens, UniProt Q12866); experiment: Surface plasmon resonance, MerTK; assay type: binding; settings: read-out: residence times
T1 sequence (Q12866 528-999): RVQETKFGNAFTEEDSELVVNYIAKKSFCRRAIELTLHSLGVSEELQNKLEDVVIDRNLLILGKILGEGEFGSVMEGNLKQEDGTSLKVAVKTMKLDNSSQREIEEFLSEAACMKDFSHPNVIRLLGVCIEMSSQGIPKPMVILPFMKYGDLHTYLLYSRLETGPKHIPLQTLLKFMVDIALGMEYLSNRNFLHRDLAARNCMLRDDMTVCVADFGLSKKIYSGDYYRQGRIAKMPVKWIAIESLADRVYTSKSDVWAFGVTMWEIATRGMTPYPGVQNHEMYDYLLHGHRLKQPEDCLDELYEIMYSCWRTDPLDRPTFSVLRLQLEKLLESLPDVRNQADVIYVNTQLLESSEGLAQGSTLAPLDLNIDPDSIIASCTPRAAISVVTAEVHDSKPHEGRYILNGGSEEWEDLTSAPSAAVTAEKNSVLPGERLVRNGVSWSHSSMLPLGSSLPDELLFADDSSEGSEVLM

RIPK1 = settings: phosphorylation mimicked by a glutamate residue; cited from earlier work
dephosphorylated MerTK = biological target: T2, dephosphorylated MerTK (Homo sapiens, UniProt Q12866); experiment: Surface plasmon resonance, dephosphorylated MerTK; assay type: binding
T2 sequence (Q12866 528-999): T1 sequence (Q12866 528-999)

residence time (MerTK [2]): < 1 min
SMILES: CCc1nc(C(N)=O)c(Nc2ccc(N3CCC(N4CCN(C)CC4)CC3)c(OC)c2)nc1NC1CCOCC1 [gilteritinib]
off-target activity against MerTK (MerTK [1]): double-digit nanomolar

SMILES: CN1C(=O)C(Cc2c[nH]c3ccccc23)NC1=S (stereo not shown) [Nec-1]
drop of affinity for RIPK1 upon phosphorylation of Ser161 (RIPK1): ~10 fold

residence time (dephosphorylated MerTK): > 120 min
SMILES: Cc1ccc(C(=O)Nc2ccc(Oc3cc4cnn(C)c4cc3-c3cn[nH]c3)c(F)c2)c(=O)n1-c1ccc(F)cc1 [merestinib]
